Assay results as given in publication PMC6891475, “Synthesis and Antiproliferative Evaluation of Novel Hybrids of Dehydroabietic Acid Bearing 1,2,3-Triazole Moiety” (Molecules, 2019).

Assays:
[1] = tested on: human liver cancer cell (HepG2); assay: MTT antiproliferative assay, HepG2; assay type: cell-based
Description: (§1) The antiproliferative activities of the 16 library members were tested against four human cancer cell lines including human nasopharyngeal carcinoma cell (CNE-2), human liver cancer cell (HepG2), human hepatocellular carcinoma cell (BEL-7402), human cervical cancer cells (HeLa), and human normal liver cell (HL-7702) using MTT assay according the reported literature method.
(§2) All the compounds (3a–p) were evaluated for their in vitro cytotoxicity against the following human cancer cell lines including CNE-2, HepG2, BEL-7402, Hela and normal liver cell HL-7702 by MTT assay. The cell lines were plated in 96-well plates at density of 5×10^3 cells/well and maintained at 37 °C with 5% CO2. The target compounds 3a–p dissolved in DMSO and further dilutions were made with DMEM, with cisplatin as the positive control. The concentration of the compounds used were 0.8, 4, 20, 100 μM. After the treatment of another 48 h and 72 h with different concentration of the samples (0.8, 4, 20, 100 μM), Therewith, 20 μL of MTT (5 mg/mL) was added and incubated for about 4 h. The medium was thrown away and the purple formazan precipitations were dissolved in 150 μL DMSO. The O. D. Value was measured at 490 nm in an enzyme labeling instrument.

[2] = tested on: human cervical cancer cells (HeLa); assay: MTT antiproliferative assay, HeLa; assay type: cell-based; conditions: mean ± SD from three independent experiments
Description: as §1, §2

[3] = tested on: human normal liver cell (HL-7702); assay: MTT cytotoxicity assay, HL-7702 normal cells; assay type: cell-based; conditions: for IC50: mean ± SD from three independent experiments; for cytotoxicity on the human normal liver cell (HL-7702), in words: qualitative statement
Description: as §1, §2

[4] = tested on: human hepatocellular carcinoma cell (BEL-7402); assay: MTT antiproliferative assay, BEL-7402; assay type: cell-based
Description: as §1, §2

[5] = tested on: human nasopharyngeal carcinoma cell (CNE-2); assay: MTT antiproliferative assay, CNE-2; assay type: cell-based
Description: as §1, §2

[6] = Homo sapiens, HepG2, mean ± SD from three independent experiments
[7] = Homo sapiens, L02, normal liver cell
[8] = Homo sapiens, Bel-7402, mean ± SD from three independent experiments
[9] = Homo sapiens, CNE-2, mean ± SD from three independent experiments
[10] = mean ± SD from three independent experiments

SMILES	IC50 [1, 6]	IC50 ([2]; Homo sapiens)	IC50 [3, 7]	melting point	IC50 [4, 8]	IC50 [5, 9]	cytotoxicity on the human normal liver cell (HL-7702), in words [3]	IC50 [1, 10]	IC50 [2]	IC50 [4, 10]	IC50 [5, 10]	IC50 ([3]; normal liver cell)
CC(C)c1ccc2c(c1)CC[C@H]1[C@](C)(C(=O)O)CCC[C@]21C [DHAA, dehydroabietic acid]	80.4 ± 0.84 µM	37.4 ± 0.64 µM	> 100 µM	–	–	–	–	–	–	–	–	–
CC(C)c1ccc2c(c1)CCC1[C@](C)(C(=O)OCc3cn(Cc4cccc(F)c4)nn3)CCC[C@]21C (stereo partly shown) [Compound 3c, [1-(3-fluorobenzyl)-1H-1,2,3-triazole-4-yl]dehydroabietic acid methyl ester]	5.9 ± 0.41 µM	20.1 ± 0.54 µM	> 100 µM	175.7 to 178.3 °C	16.72 ± 0.06 µM	10.9 ± 0.21 µM	lower cytotoxicity	–	–	–	–	–
N.N.[Cl][Pt][Cl] [Cisplatin, cisplatin, reference compound]	–	–	–	–	–	–	–	6.42 ± 0.18 µM	1.94 ± 0.2 µM	12.7 ± 0.33 µM	8.75 ± 0.24 µM	20.8 ± 0.83 µM
CC(C)c1ccc2c(c1)CCC1[C@](C)(C(=O)OCc3cn(Cc4ccccc4Br)nn3)CCC[C@]21C (stereo partly shown) [Compound 3h, [1-(2-bromobenzyl)-1H-1,2,3-triazole-4-yl]dehydroabietic acid methyl ester]	35.42 ± 0.21 µM	25.9 ± 0.2 µM	> 100 µM	95.1 to 97.3 °C	27.3 ± 0.36 µM	48.3 ± 0.27 µM	–	–	–	–	–	–
CC(C)c1ccc2c(c1)CCC1[C@](C)(C(=O)OCc3cn(Cc4ccc(F)cc4)nn3)CCC[C@]21C (stereo partly shown) [Compound 3d, [1-(4-fluorobenzyl)-1H-1,2,3-triazole-4-yl]dehydroabietic acid methyl ester]	20.6 ± 0.09 µM	22.3 ± 0.35 µM	> 100 µM	183 to 186.3 °C	14.8 µM	12.2 ± 0.33 µM	–	–	–	–	–	–
CC(C)c1ccc2c(c1)CCC1[C@](C)(C(=O)OCc3cn(Cc4ccccc4)nn3)CCC[C@]21C (stereo partly shown) [Compound 3a, (1-benzyl-1H-1,2,3-triazole-4-yl)dehydroabietic acid methyl ester]	> 100 µM	67.88 ± 0.56 µM	> 100 µM	181 to 183.4 °C	36.4 ± 70 µM	33.4 ± 0.33 µM	–	–	–	–	–	–
CC(C)c1ccc2c(c1)CCC1[C@](C)(C(=O)OCc3cn(Cc4ccc([N+](=O)[O-])cc4)nn3)CCC[C@]21C (stereo partly shown) [Compound 3m, [1-(4-nitrobenzyl)-1H-1,2,3-triazole-4-yl]dehydroabietic acid methyl ester]	> 100 µM	22.5 ± 0.35 µM	> 100 µM	173.9 to 176.7 °C	22.81 ± 0.22 µM	19.6 ± 0.38 µM	–	–	–	–	–	–
CC(C)c1ccc2c(c1)CCC1[C@](C)(C(=O)OCc3cn(Cc4ccccc4[N+](=O)[O-])nn3)CCC[C@]21C (stereo partly shown) [Compound 3k, [1-(2-nitrobenzyl)-1H-1,2,3-triazole-4-yl]dehydroabietic acid methyl ester]	6.25 ± 0.37 µM	> 100 µM	> 100 µM	119.7 to 122.2 °C	18.6 ± 0.26 µM	44.9 ± 0.32 µM	lower cytotoxicity	–	–	–	–	–
COc1cccc(Cn2cc(COC(=O)[C@]3(C)CCC[C@]4(C)c5ccc(C(C)C)cc5CCC34)nn2)c1 (stereo partly shown) [Compound 3p, [1-(3-methoxybenzyl)-1H-1,2,3-triazole-4-yl]dehydroabietic acid methyl ester]	> 100 µM	24.66 ± 0.16 µM	> 100 µM	106.5 to 108 °C	25.03 ± 0.22 µM	80.98 ± 0.78 µM	–	–	–	–	–	–
CC(C)c1ccc2c(c1)CCC1[C@](C)(C(=O)OCc3cn(Cc4ccc(Br)cc4)nn3)CCC[C@]21C (stereo partly shown) [Compound 3j, [1-(4-bromobenzyl)-1H-1,2,3-triazole-4-yl]dehydroabietic acid methyl ester]	23.4 ± 0.32 µM	43.18 ± 0.22 µM	> 100 µM	172.5 to 174 °C	14.5 ± 0.62 µM	> 100 µM	–	–	–	–	–	–
CC(C)c1ccc2c(c1)CCC1[C@](C)(C(=O)OCc3cn(Cc4ccccc4F)nn3)CCC[C@]21C (stereo partly shown) [Compound 3b, [1-(2-fluorobenzyl)-1H-1,2,3-triazole-4-yl]dehydroabietic acid methyl ester]	25.9 ± 0.27 µM	17.8 ± 0.31 µM	> 100 µM	122.4 to 125.8 °C	18.6 ± 0.82 µM	21.4 ± 0.52 µM	–	–	–	–	–	–
Cc1cccc(Cn2cc(COC(=O)[C@]3(C)CCC[C@]4(C)c5ccc(C(C)C)cc5CCC34)nn2)c1 (stereo partly shown) [Compound 3n, [1-(3-methylbenzyl)-1H-1,2,3-triazole-4-yl]dehydroabietic acid methyl ester]	60.18 ± 0.39 µM	25.3 ± 0.81 µM	> 100 µM	130.7 to 132.8 °C	23.6 ± 0.44 µM	> 100 µM	–	–	–	–	–	–
CC(C)c1ccc2c(c1)CCC1[C@](C)(C(=O)OCc3cn(Cc4ccccc4Cl)nn3)CCC[C@]21C (stereo partly shown) [Compound 3e, [1-(2-chlorobenzyl)-1H-1,2,3-triazole-4-yl]dehydroabietic acid methyl ester]	45.08 ± 0.33 µM	44.28 ± 0.43 µM	> 100 µM	80.6 to 84.3 °C	25.1 ± 0.32 µM	74.88 ± 0.14 µM	–	–	–	–	–	–
CC(C)c1ccc2c(c1)CCC1[C@](C)(C(=O)OCc3cn(Cc4ccc(Cl)cc4)nn3)CCC[C@]21C (stereo partly shown) [Compound 3g, [1-(4-chlorobenzyl)-1H-1,2,3-triazole-4-yl]dehydroabietic acid methyl ester]	> 100 µM	> 100 µM	> 100 µM	176.9 to 179.2 °C	38 ± 0.48 µM	60.7 ± 66 µM	–	–	–	–	–	–
CC(C)c1ccc2c(c1)CCC1[C@](C)(C(=O)OCc3cn(Cc4cccc([N+](=O)[O-])c4)nn3)CCC[C@]21C (stereo partly shown) [Compound 3l, [1-(3-nitrobenzyl)-1H-1,2,3-triazole-4-yl]dehydroabietic acid methyl ester]	15.8 ± 0.64 µM	67.37 ± 0.33 µM	> 100 µM	128.5 to 132.3 °C	15.4 ± 0.51 µM	11.5 ± 0.18 µM	–	–	–	–	–	–
CC(C)c1ccc2c(c1)CCC1[C@](C)(C(=O)OCc3cn(Cc4cccc(Br)c4)nn3)CCC[C@]21C (stereo partly shown) [Compound 3i, [1-(3-bromobenzyl)-1H-1,2,3-triazole-4-yl]dehydroabietic acid methyl ester]	40.7 ± 0.62 µM	56.08 ± 0.36 µM	> 100 µM	146.1 to 148 °C	36.88 ± 0.23 µM	44.14 ± 0.22 µM	–	–	–	–	–	–
Cc1ccc(Cn2cc(COC(=O)[C@]3(C)CCC[C@]4(C)c5ccc(C(C)C)cc5CCC34)nn2)cc1 (stereo partly shown) [Compound 3o, [1-(4-methylbenzyl)-1H-1,2,3-triazole-4-yl]dehydroabietic acid methyl ester]	51.78 ± 0.43 µM	42.51 ± 0.37 µM	> 100 µM	160.4 to 162 °C	41.9 ± 0.72 µM	> 100 µM	–	–	–	–	–	–
CC(C)c1ccc2c(c1)CCC1[C@](C)(C(=O)OCc3cn(Cc4cccc(Cl)c4)nn3)CCC[C@]21C (stereo partly shown) [Compound 3f, [1-(3-chlorobenzyl)-1H-1,2,3-triazole-4-yl]dehydroabietic acid methyl ester]	22.3 ± 0.35 µM	53.78 ± 0.32 µM	> 100 µM	153.2 to 155.5 °C	26.09 ± 0.15 µM	59.03 ± 0.28 µM	–	–	–	–	–	–
